Assay results: ChEMBL document CHEMBL3407405 (J Med Chem, 2015)
pEC50: −log10 of the molar value.

How the values were obtained:
[1] = target: T1, Estrogen receptor (Homo sapiens) (UniProt P03372); assay: Displacement of [3H]estradiol from human full-length ERalpha after 18 to 24 hrs by relative binding affinity/competitive radiometric binding assay relative to estradiol; conditions: concentration not given here
T1 sequence (whole entry): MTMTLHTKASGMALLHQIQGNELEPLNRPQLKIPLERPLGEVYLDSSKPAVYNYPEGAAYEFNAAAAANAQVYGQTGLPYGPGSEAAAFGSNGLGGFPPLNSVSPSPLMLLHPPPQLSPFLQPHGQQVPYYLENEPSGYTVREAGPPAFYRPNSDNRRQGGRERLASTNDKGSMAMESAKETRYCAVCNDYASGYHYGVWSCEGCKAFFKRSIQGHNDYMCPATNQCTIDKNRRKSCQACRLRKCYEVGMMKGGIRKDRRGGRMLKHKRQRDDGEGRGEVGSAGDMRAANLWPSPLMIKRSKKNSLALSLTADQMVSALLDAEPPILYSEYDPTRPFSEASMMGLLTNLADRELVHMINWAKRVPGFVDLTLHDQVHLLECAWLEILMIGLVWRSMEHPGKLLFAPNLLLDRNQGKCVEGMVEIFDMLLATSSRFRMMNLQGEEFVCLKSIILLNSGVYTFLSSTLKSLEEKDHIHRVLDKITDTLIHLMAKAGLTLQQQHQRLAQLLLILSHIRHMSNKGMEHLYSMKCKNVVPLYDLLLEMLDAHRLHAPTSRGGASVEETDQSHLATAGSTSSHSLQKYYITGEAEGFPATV

Estrogen receptor beta [2] = target: T2, Estrogen receptor beta (Homo sapiens, UniProt Q92731); assay: Displacement of [3H]estradiol from human full-length ERbeta after 18 to 24 hrs by relative binding affinity/competitive radiometric binding assay relative to estradiol; conditions: concentration not given here
T2 sequence (Q92731 whole entry): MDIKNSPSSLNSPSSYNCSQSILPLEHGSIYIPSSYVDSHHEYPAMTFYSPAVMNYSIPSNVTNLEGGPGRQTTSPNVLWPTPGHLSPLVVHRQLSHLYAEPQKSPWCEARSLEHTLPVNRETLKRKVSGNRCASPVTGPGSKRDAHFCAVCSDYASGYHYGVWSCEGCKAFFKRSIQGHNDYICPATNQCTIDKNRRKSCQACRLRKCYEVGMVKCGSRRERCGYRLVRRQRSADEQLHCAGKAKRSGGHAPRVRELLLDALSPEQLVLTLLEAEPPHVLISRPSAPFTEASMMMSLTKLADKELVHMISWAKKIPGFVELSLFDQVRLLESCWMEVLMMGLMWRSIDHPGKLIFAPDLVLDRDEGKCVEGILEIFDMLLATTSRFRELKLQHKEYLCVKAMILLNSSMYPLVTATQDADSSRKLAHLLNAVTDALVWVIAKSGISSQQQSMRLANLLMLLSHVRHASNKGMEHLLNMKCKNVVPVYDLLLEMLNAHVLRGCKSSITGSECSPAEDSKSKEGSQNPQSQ

Estrogen receptor [3] = target: T3, Estrogen receptor (Homo sapiens, UniProt P03372)
T3 sequence (P03372 whole entry): T1 sequence (whole entry)
Description: Agonist activity at human ERalpha in human MCF7 cells assessed as progesterone receptor endogenous genes activation after 24 hrs by qPCR

Estrogen receptor beta [4] = target: T2, Estrogen receptor beta
Description: Agonist activity at human ERbeta in human MCF7 cells assessed as otubain 2 endogenous genes activation after 24 hrs by qPCR

Estrogen receptor [5] = target: T3, Estrogen receptor; remark: listed apart in the source
Description: Agonist activity at human ERalpha expressed in human HEC1 cells assessed as transcriptional activation after 24 hrs by ERE-luciferase reporter gene transfection assay

Estrogen receptor beta [6] = target: T2, Estrogen receptor beta; remark: listed apart in the source
Description: Agonist activity at human ERbeta expressed in human HEC1 cells assessed as transcriptional activation after 24 hrs by ERE-luciferase reporter gene transfection assay

| inhibition [1] [%] | inhibition (Estrogen receptor beta [2]) [%] | SMILES | pEC50 (Estrogen receptor [3]) | pEC50 (Estrogen receptor beta [4]) | pEC50 (Estrogen receptor [5]) | pEC50 (Estrogen receptor beta [6]) |
| --- | --- | --- | --- | --- | --- | --- |
| < 0.005 | 0.099 | C/C(=N\O)c1cc(-c2ccc(Cl)cc2)ccc1O | – | – | – | – |
| < 0.005 | < 0.005 | COc1ccc(-c2ccc(O)c(/C(C)=N/O)c2)cc1Cl | – | – | – | – |
| < 0.005 | < 0.005 | COc1ccc(-c2ccc(O)c(/C(C)=N/O)c2)cc1F | – | – | – | – |
| 0.033 | 1.1 | C/C(=N\O)c1cc(-c2ccc(O)c(Cl)c2)ccc1O | – | – | – | – |
| 0.1 | 1.6 | C/C(=N\O)c1cc(-c2ccc(O)c(C)c2)ccc1O | – | – | – | – |
| < 0.005 | < 0.005 | COc1ccc(-c2ccc(O)c(/C(C)=N/O)c2)cc1C | – | – | – | – |
| 3 | 46 | CC/C(=N\O)c1cc(-c2ccc(O)cc2)ccc1O | – | – | – | – |
| < 0.005 | 0.015 | C/C(=N\O)c1cc(-c2ccc(F)cc2)ccc1O | – | – | – | – |
| < 0.005 | 0.011 | COc1ccc(-c2ccc(O)c(/C(C)=N/O)c2)cc1 | – | – | – | – |
| 1.9 | 49 | CC/C(=N\O)c1cc(-c2ccc(O)c(F)c2)ccc1O | – | – | – | – |
| 0.036 | 0.76 | O/N=C(/c1cc(-c2ccc(O)cc2)ccc1O)C(F)(F)F | – | – | – | – |

| SMILES | inhibition [1] [%] | inhibition (Estrogen receptor beta [2]) [%] | pEC50 (Estrogen receptor [3]) | pEC50 (Estrogen receptor beta [4]) | pEC50 (Estrogen receptor [5]) | pEC50 (Estrogen receptor beta [6]) |
| --- | --- | --- | --- | --- | --- | --- |
| C/C(=N\O)c1cc(-c2ccc(O)c(F)c2)ccc1O | 0.16 | 12 | 5.68 | 7.46 | 6.71 | 7.83 |
| C/C(=N\O)c1cc(-c2ccc(O)cc2)ccc1O | 0.54 | 46 | 7.08 | 7.90 | 7.53 | 8.40 |
